Assay results as given in patent US20250324971A1, “HERBICIDAL DERIVATIVES” (SYNGENTA CROP PROTECTION AG, priority 2022, published 2025).

Tests used:
Assay type in all cases: in vivo
[1] = tested on: Ipomoea hederacea (IPOHE); assay: Pre-Emergence Test (herbicidal, glasshouse pots); settings: rate 1000 g/ha, evaluated after 13 days, five-point scale
[2] = tested on: Echinochloa crus-galli (ECHCG); assay: Pre-Emergence Test (herbicidal, glasshouse pots); settings: rate 1000 g/ha, evaluated after 13 days, five-point scale
[3] = tested on: Amaranthus retoflexus (AMARE); assay: Pre-Emergence Test (herbicidal, glasshouse pots); settings: rate 1000 g/ha, evaluated after 13 days, five-point scale
Zea mays (ZEAMX) [4] = assay: Pre-Emergence Test (herbicidal, glasshouse pots); settings: rate 1000 g/ha, evaluated after 13 days, five-point scale
[5] = tested on: Amaranthus palmeri (AMAPA); assay: Pre-Emergence Test (herbicidal, glasshouse pots); settings: rate 1000 g/ha, evaluated after 13 days, five-point scale
[6] = tested on: Amaranthus palmeri (AMAPA); assay: Post-Emergence Test (herbicidal, glasshouse pots); settings: rate 1000 g/ha; evaluated after 13 days
Description: (§1) Seeds of a variety of test species are sown in standard soil in pots (Setaria faberi (SETFA), Ipomoea hederacea (IPOHE), Echinochloa crus-galli (ECHCG), (Amaranthus retoflexus (AMARE), Zea mays (ZEAMX), and Amaranthus palmeri (AMAPA)). After 8 days cultivation under controlled conditions in a glasshouse (at 24° C./16° C., day/night; 14 hours light; 65% humidity), the plants arm sprayed with an aqueous spray solution derived from the formulation of the technical active ingredient in acetone/water (50:50) solution containing 0.5% Tween 20 (polyoxyethylene sorbitan monolaurate, CAS RN 9005-84-5). Rate of application is shown in g/ha in the tables below. The test plants are then grown in a glasshouse under controlled conditions in a glasshouse (at 24° C./16° C., day/night; 14 hours light; 65% humidity) and watered twice daily. After 13 days the test is evaluated for the percentage damage caused to the plant. The biological activities are shown in the following table on a five-point scale (5=81-100%; 4=61-80%; 3=41-60%; 2=21-40%; 1=0-20%; -=not tested).

[7] = tested on: Amaranthus retoflexus (AMARE); assay: Post-Emergence Test (herbicidal, glasshouse pots); settings: rate 1000 g/ha; evaluated after 13 days
Description: as §1

[8] = tested on: Echinochloa crus-galli (ECHCG); assay: Post-Emergence Test (herbicidal, glasshouse pots); settings: rate 1000 g/ha; evaluated after 13 days
Description: as §1

[9] = tested on: Ipomoea hederacea (IPOHE); assay: Post-Emergence Test (herbicidal, glasshouse pots); settings: rate 1000 g/ha; evaluated after 13 days
Description: as §1

Zea mays (ZEAMX) [10] = assay: Post-Emergence Test (herbicidal, glasshouse pots); settings: rate 1000 g/ha; evaluated after 13 days
Description: as §1

Row | SMILES | percentage damage caused to the plant, IPHOE [1] | percentage damage caused to the plant, ECHCG [2] | percentage damage caused to the plant, AMARE [3] | percentage damage caused to the plant, ZEAMX (Zea mays (ZEAMX) [4]) | percentage damage caused to the plant, AMAPA [5] | Post-Emergence Test AMAPA percentage damage (five-point scale) [6] | Post-Emergence Test AMARE percentage damage (five-point scale) [7] | Post-Emergence Test ECHCG percentage damage (five-point scale) [8] | Post-Emergence Test IPHOE percentage damage (five-point scale) [9] | Post-Emergence Test ZEAMX percentage damage (five-point scale) (Zea mays (ZEAMX) [10])
1 | CCn1c(Oc2cncc(Cl)c2)cc(=O)c(C(=O)O)c1-c1ccc(Cl)c(Cl)c1 [Compound 13, 6-[(5-chloro-3-pyridyl)oxy]-2-(3,4-dichlorophenyl)-1-ethyl-4-oxo-pyridine-3-carboxylic acid] | 5 (5=81-100%) | 4 (4=61-80%) | 5 (5=81-100%) | 2 (2=21-40%) | 4 (4=61-80%) | 4 (4=61-80%) | 5 (5=81-100%) | 5 (5=81-100%) | 4 (4=61-80%) | 4 (4=61-80%)
2 | CCn1c(Oc2cc(F)cc(F)c2)cc(=O)c(C(=O)O)c1-c1ccc(Cl)c(Cl)c1 [Compound 15, 2-(3,4-dichlorophenyl)-6-(3,5-difluorophenoxy)-1-ethyl-4-oxo-pyridine-3-carboxylic acid] | 3 (3=41-60%) | 4 (4=61-80%) | 1 (1=0-20%) | 1 (1=0-20%) | 1 (1=0-20%) | 3 (3=41-60%) | 4 (4=61-80%) | 3 (3=41-60%) | 3 (3=41-60%) | 3 (3=41-60%)
3 | CCn1c(Oc2cccc(Cl)c2Cl)cc(=O)c(C(=O)O)c1-c1ccc(Cl)c(Cl)c1 [Compound 17, 6-(2,3-dichlorophenoxy)-2-(3,4-dichlorophenyl)-1-ethyl-4-oxo-pyridine-3-carboxylic acid] | 0 | 0 | 0 | 1 (1=0-20%) | 0 | 1 (1=0-20%) | 1 (1=0-20%) | 1 (1=0-20%) | 0 | 1 (1=0-20%)
4 | CCn1c(Oc2ccc(Cl)c(Cl)c2)cc(=O)c(C(=O)O)c1-c1ccc(Cl)c(Cl)c1 [Compound 18, 6-(3,4-dichlorophenoxy)-2-(3,4-dichlorophenyl)-1-ethyl-4-oxo-pyridine-3-carboxylic acid] | 0 | 0 | 0 | 0 | 0 | 1 (1=0-20%) | 1 (1=0-20%) | 0 | 1 (1=0-20%) | 1 (1=0-20%)
5 | CCn1c(Oc2ccc(Cl)cc2)cc(=O)c(C(=O)O)c1-c1ccc(Cl)c(Cl)c1 [Compound 19, 6-(4-chlorophenoxy)-2-(3,4-dichlorophenyl)-1-ethyl-4-oxo-pyridine-3-carboxylic acid] | 1 (1=0-20%) | 4 (4=61-80%) | 0 | 1 (1=0-20%) | 0 | 4 (4=61-80%) | 5 (5=81-100%) | 3 (3=41-60%) | 3 (3=41-60%) | 3 (3=41-60%)
